Tested on: HT-29 colon cancer cells
Assay: Amperometric measurement of induced alkaline phosphatase activity in HT-29 cells on the electrochemical array chip (substrate p-APP, 220 mV)
Assay type: cell-based, human
Conditions: for induced alkaline phosphatase enzymatic activity (amperometric current): exposed for 96 hours, substrate PAPP, 220 mV
Description: HT-29 human colon cancer cells were grown in DMEM medium in the presence of fetal bovine serum at 37° C. in 95% air, 5% CO2 for 3 days prior to butyrate treatment. Butyrate at different concentrations was added to the HT-29 cell cultures. Concentrations applied were: 0, 0.078, 0.156, 0.3125, 0.625, 1.25, 2.5, 5 and 10 mM. Optimal butyrate concentration, LC50 and viability were calculated accordingly. The measurements were performed in PBS with the intact cells and without additional treatment of the cancer cells such as lysis.
BA (Sigma, Israel) ranging between 0.08-10 mM were introduced to HT-29 colon cancer cells and incubated for 72 h for optimization. BA at a constant concentration of 2.5 mM was applied in all electrochemical experiments. BA derivatives, butyroylmethyl-diethyl phosphate, and pivaloyloxymethyl butyrate, were synthesized as described [Rephaeli A, Zhuk R, Nudelman A, 2000, Drug Develop. Res. Vol 50:379-391]. Butyroylmethyl-diethyl phosphate was solubilized in PBS and pivaloyloxymethyl butyrate in DMSO followed by dilution with medium to a final DMSO concentration of ≦0.1%. The prodrugs were then introduced to the cells at a constant concentration of 50 μM and incubated for 96 h at 37° C. in 95% air, 5% CO2 conditions. Following incubation with the differentiation agents, viable cells were counted by tripa blue exclusion and tested for viability and LC50 calculations. Prior to all electrochemical measurement, cells were centrifuged and diluted in PBS. All measurements were performed in PBS. The influence of BA, pivaloyloxymethyl butyrate and butyroylmethyl-diethyl phosphate were examined by measuring the enzymatic activity of alkaline phosphatase.
Amperometric enzyme measurements were performed with the electrochemical substrate, p-APP. The enzymatic reaction product, aminophenol (p-AP), is oxidized at the gold working electrode at 220 mV and the generated current was measured. Eight-channeled 100 nL volume electrochemical chambers were loaded with HT-29 cancer cells, that were treated with BA or its derivatives. Cells were placed into the electrochemical chambers and the substrate was added to 1 mg/ml final concentration at a total volume of 100 nL. The generated current was measured and the number of cells was counted under the microscope. The correlation between cell number and current density was analyzed.
HT-29 colon cancer cells were exposed for 96 hours to various differentiation therapy agents and the induced alkaline phosphatase activity was measured. […]
In order to further examine the sensitivity of the biochip, increasing numbers of HT-29 colon cancer cells were incubated with butyroylmethyl-diethyl phosphate for different lengths of time. The amount of endogenous alkaline phosphatase was measured using the biochip of the present invention.

Row | SMILES | induced alkaline phosphatase enzymatic activity (amperometric current) (50 μM) | effect on cancer cells (alkaline phosphatase current signal) versus incubation time (eight, seventy eight and ninety six hour treatment, increasing cell numbers) | induced alkaline phosphatase enzymatic activity (amperometric current) (2.5 mM)
1 | CCCC(=O)OCOP(=O)(OCC)OCC [butyroylmethyl-diethyl phosphate] | induced enzymatic activity of alkaline phosphatase | increased as incubation time increased | –
2 | CCCC(=O)OCOC(=O)C(C)(C)C [pivaloyloxymethyl butyrate] | did not induce any enzyme activity | – | –
3 | CCCC(=O)O [BA, Butyric acid] | – | – | induced enzymatic activity of alkaline phosphatase
